From patent US7935525B2, “Inhibition of ATF2 activity to treat cancer” (Mount Sinai School of Medicine, priority 2001, dated 2011)
“Also recorded” adds a separate entry of the source. No end group written: not given here.

Key:
SW1 tumors = test: cDNA microarray expression profiling of SW1 tumors; format: in vivo, mouse
Description: cDNA microarray hybridizations. The 10 k mouse Gem 2 gene set (Incyte Genomics Inc, Palo Alto Calif.) was printed at the NCI on poly-L lysine coated glass using Biorobotics TASII arrayer (Cambridge, England). All protocols for the manufacturing and hybridization of microarrays are available at the NCI web site. Approximately 20 μg of total RNA was used in the reverse transcription reaction to directly label the probe with either Cy-5 dUTP or Cy-3 dUTP (Amersham®). Hybridizations were performed at 65° C. for 12-18 h in a hybridization volume of […]. The hybridized arrays were scanned using an Axon GenePix 4000® scanner (Union city, CA) and fluorescent data were collected using GenePix™ software.
Data Analysis. The axon image data for each microarray was uploaded to the NCI mAdb database for subsequent analysis using a variety of statistical web based tools. Gene clustering analysis was performed using the clustering algorithm and tree view software developed by Mike Eisen (Stanford, Calif.).

Fas promoter = Fas promoter activity (-460 Fas promoter region); format: cell-based, human; conditions: peptide-expressing LU1205
LU1205 tumor cells = test: Growth of transplanted LU1205 tumors in mice; format: in vivo
Description: (§1) Tumor growth and metastasis evaluation in vivo. Cell lines established in culture to constitutively or inducibly express the peptide were injected into mice subcutaneously (S.C.). LU1205, FEMX and SW-1 cells that expressed control or peptide II were trypsinized, resuspended in PBS and injected SC (1×10^6) into 6-7 week old mice in the lower flank. When the tumor reached the size of about 50 mm^3, 5 μM of SB203580 was injected into four areas of the LU1205 tumors every 4 days during a 2-week period. For FEMX tumors UCN-01 (2.5 mg/kg) was fed by gavage twice a day, three times per week for a total of 2 weeks. Tumor growth was monitored every two days. SW-1 cells expressing peptide II under tet-inducible vector were injected SC (1×10^6). When tumors reached a size of about 50 mm^3, the mice received doxycycline in their drinking water ([…]) for a total of 2-4 weeks. At the end of the experiment, the tumors were excised and weighed. The lungs and other organs were subjected to histopathological examination to detect metastatic lesions.

[1] = tested on: ATF2 target sequence (c-Jun promoter motif TGACACTA); test: Electrophoretic mobility shift assay with labeled AP1 oligonucleotide; format: binding, mouse; conditions: control vs peptide-expressing SW1 cells
Description: Electrophoretic mobility shift assays were performed as described. (Ivanov and Ronada, J Biol Chem 1999; 274(20):14079-89). GST binding assays were performed with GST-peptide II as described (Adler et al., Proc Natl Acad Sci USA 1995; 92 10585-9). SW1 cells expressing control vector or peptide II were subjected to FACS analysis following their incubation with antibodies to the cell surface receptor of FAS as described above.

Jun2-Luc = Jun2-Luc reporter in ATF2 null cells; format: cell-based
p38 = p38 (Homo sapiens, UniProt Q16539); test: In vitro phosphorylation of the peptide; format: biochemical
p38, sequence (Q16539 whole entry): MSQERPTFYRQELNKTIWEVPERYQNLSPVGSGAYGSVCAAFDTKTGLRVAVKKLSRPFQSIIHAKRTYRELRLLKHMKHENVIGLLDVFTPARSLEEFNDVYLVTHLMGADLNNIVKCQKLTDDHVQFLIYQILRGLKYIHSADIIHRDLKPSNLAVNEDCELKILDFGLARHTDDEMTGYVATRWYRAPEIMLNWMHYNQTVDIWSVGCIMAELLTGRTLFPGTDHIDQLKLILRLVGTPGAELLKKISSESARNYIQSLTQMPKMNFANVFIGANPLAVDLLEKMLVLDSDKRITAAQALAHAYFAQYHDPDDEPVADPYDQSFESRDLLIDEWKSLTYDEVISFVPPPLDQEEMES

Fas protein = test: Western blot of overall Fas protein in melanoma cells; format: cell-based; conditions: peptide-expressing melanoma cells
AP1 complex = conditions: previous studies; cited from earlier work
SW1 melanoma tumors = test: Growth of SW1 tumors in FasL-deficient GLD mice; format: in vivo; conditions: compared with C3H
Description: as §1

FEMX cells = test: Apoptosis by FACS (hypodiploid fraction); format: cell-based, human
Description: (§2) Treatment and apoptosis studies of stably transfected melanoma cells. Cells were exposed to UVC at 75 J/m^2 as previously described (Ronai, Z., et al., Oncogene 1998; 16:523-531). SB203580 (1-10 μM) (Calbiochem®, San Diego, Calif.), NCS (50-100 ng/ml) and mitomycin C (MMC) (0.2-1 μM) were used to treat melanoma cells. Flow cytometric analysis was performed on a FACSCalibur™ flow cytometer (Becton Dickinson) using CellQuest™ software as described previously (Nicoletti et al., J. Immunol. Methods 1991; 139:271-279). Cells were pelleted and resuspended in 0.5 ml of hypotonic buffer with 0.1% Triton X-100 containing PI (40 μg/ml) and DNase-free RNase A (1 mg/ml). Cells were incubated at 37° C. for 30 min and analyzed on a FACSCalibur™ flow cytometer (Becton Dickinson). The percentage of cells to the left of the diploid G0/1 peak, characteristic of hypodiploid cells that have lost DNA, was defined as the percentage of apoptotic cells. Analysis was performed with light scatter gating. Surface expression of Fas was determined using anti-Fas-PE antibody (PharMingen® CA) and flow cytometric analysis. Cell surface expression is measured as mean fluorescence intensity (MFI).

[2] = tested on: Adriamycin-resistant MCF7 cell line (MCF7-Adr); test: Apoptosis by FACS (hypodiploid fraction); format: cell-based, human; conditions: peptide-expressing MCF7-Adr; neo controls 3-fold; 36 h
Description: [Worded in the source for another cell line; this cell line is reported under the same test.] as §2

[3] = tested on: MCF7 breast cancer-derived cell line; test: Apoptosis by FACS (hypodiploid fraction); format: cell-based, human; conditions: peptide-expressing MCF7
Description: [Worded in the source for another cell line; this cell line is reported under the same test.] as §2

[4] = tested on: WM1552 early-phase melanoma cell line; test: Apoptosis by FACS (hypodiploid fraction); format: cell-based, human; conditions: peptide-expressing WM1552; UV-C 75 J/m2; 36 h
Description: as §2

[5] = tested on: human melanocytes (FOM71); test: Apoptosis by FACS (hypodiploid fraction); format: cell-based; conditions: transient peptide expression; UV 75 J/m^2; 36 h
Description: as §2

[6] = tested on: 293T human kidney embryonic cells; test: Apoptosis by FACS (hypodiploid fraction); format: cell-based; conditions: peptide-expressing 293T; normal growth conditions
Description: [Worded in the source for another cell line; this cell line is reported under the same test.] as §2

FEMX tumor cells = test: Growth of transplanted FEMX tumors in mice; format: in vivo
Description: as §1

[7] = tumors expressing peptide vs control vector

Substance: peptide II: N-terminal polypeptide fragment of ATF2, amino acid residues 50-100, expressed from pcDNA3 with HA-penetratin tag (EMTLKFGPARNDSVIVADQTPTPTRFLKNCEEVGLFNELASPFENEFKKAS; also: HA-penetratin tag, position not given here; UniProt P15336 50-100, looked up, fragment)
- expression of ATF2 (SW1 tumors; four independent experiments): downregulated
- expression of ATF4 transcripts (SW1 tumors; four independent experiments): increase
- transcripts of interleukin-1 beta, cullin 3, kinesin-associated protein 3, ATF3 and membrane metallo-endopeptidase (SW1 tumors; tumors expressing peptide): up-regulated
- transcripts of tyrosine kinase 2, metallothionein 2 and ubiquitin-specific protease 18 (SW1 tumors; tumors expressing peptide): downregulated
- expression of Fas-associated genes (SW1 tumors; [7]): Downregulation
- expression of growth-associated genes (SW1 tumors; [7]): consistent downregulation
- expression of interferon-associated genes (SW1 tumors; [7]): consistent downregulation
- expression of tumor necrosis factor-related genes (and other tumor antigens) (SW1 tumors; [7]): strongly upregulated
- Fas promoter mediated transcription (Fas promoter): increase in Fas-mediated transcription
- inhibition of tumor growth (LU1205 tumor cells; combination: peptide-expressing LU1205 + SB203580): significant inhibition of tumor growth; also recorded: more effective
- tumor cell growth (LU1205 tumor cells; single agent: inhibitor injected into tumor, or peptide expressed in tumor cells): grew much more slowly
- binding of nuclear extracts to the labeled AP1 oligonucleotide [1]: No significant changes
- Jun2-Luc activities (Jun2-Luc): did not affect
- phosphorylation of the peptide by p38 (p38): Neither JNK nor p38 was found capable of phosphorylating
- overall level of Fas protein (Fas protein): increase in the overall level of Fas protein
- inhibition of transcriptional activity mediated from the AP1 complex (AP1 complex): 3 fold
- blocking growth of SW1 tumors (SW1 melanoma tumors): as efficient in blocking growth
- increase in the degree of UCN-01-elicited apoptosis (FEMX cells; peptide-expressing FEMX vs parent): > 3 fold
- apoptotic fraction of UV-treated cells (FEMX cells; peptide-expressing FEMX, UV-C 75 J/m2, 36 h, neo control 13%): 28%
- increase in apoptosis following UV-treatment [2]: 8 fold
- increase in sensitivity to UCN-01 elicited apoptosis [3]: ~2 fold
- increase in degree of apoptosis following UV-treatment relative to non-irradiated cells ([3]; neo control 4-fold, 36 h): ~9 fold
- effect on the basal level of apoptosis ([3]; no treatment): minimal effect
- sensitization to UV-induced apoptosis [4]: no longer was able to elicit sensitization
- sensitivity to undergo UV-induced apoptosis [5]: did not cause a significant increase
- increase in the degree of basal apoptosis [6]: 5 fold
- tumor growth (FEMX tumor cells; co-treatment: peptide-expressing FEMX + UCN-01): tumor regression
- tumor cell growth (FEMX tumor cells; single agent: UCN-01 by gavage, or peptide expressed in tumor cells): grew much more slowly
